Entries after “also recorded” stand apart in the source; their conditions may differ. Read-outs that look alike come from different tables or passages of the source.

In series [1] the test system is skilled panelists. Briefly: Evaluation of the mouthfeel enhancer in Diet Cola, tasted blind by panel. The class given is in vivo. As to conditions: for Overall result: deliver the mouthfeel required in the reduced-sugar beverage without further generating undesirable off-notes: 5 mg in 300 mL Diet Cola; for Results (mouthfeel, sweetness, off-notes and other descriptors): 5 mg in 300 mL commercial Diet Cola, tasted blind by 4-5 skilled panelists by comparison with Diet Cola without mouthfeel enhancer (reference).

A short description of series [2]: Solubility observed in Diet Cola samples. As to the method: 5 mg of each of the following compounds, all obtained from Avanti Polar Lipids, Inc., Alabama, USA was added to 300 mL of a commercially available Diet Cola in a bottle. The bottles were then closed and shaken by hand for 1 min at room temperature. Following this, the bottles were sonicated for 5 min in an ultrasonic bath and then stored at room temperature overnight. All samples were tasted blind by 4-5 skilled panelists and assessed, by comparison with a Diet Cola not containing any mouthfeel enhancer, for mouthfeel, sweetness, off-notes and other descriptors.

Consider `CCCCCCCCCCCCCCCC(=O)OCC(COP(=O)(O)OCC(O)CO)OC(=O)CCCCCCCCCCCCCCC` (stereo not shown) [Dipalmitoylphosphatidyl glycerol], for which, in series [1], the “Overall result: deliver the mouthfeel required in the reduced-sugar beverage without further generating undesirable off-notes” value is given as “Excellent results”; the “Results (mouthfeel, sweetness, off-notes and other descriptors)” value (from here on “Results”) is “Seems less carbonated, less acidic, more citrusy; also recorded: aroma, better mouthfeel, less metallic, good; also recorded: no off-note”.

In the case of `CCCCCCCCCC(=O)OC[C@@H](O)COP(=O)([O-])OCC[N+](C)(C)C` [1-Capryl-2-hydroxy-glycero-3-phosphocholine], the “Results” value in series [1] was “slightly more mouthfeel, close to reference”.

As for `CCCCCCCCCCCCCCCC(=O)OC[C@H](COP(=O)([O-])OCC[N+](C)(C)C)OC(=O)CCCCCCCCCCCCCCC` [Dipalmitoylphosphatidyl choline], in series [1], the “Overall result: deliver the mouthfeel required in the reduced-sugar beverage without further generating undesirable off-notes” value is recorded as “Excellent results”; the “Results” value is given as “Sweeter, nice sweetness but lingering, good; also recorded: difference, slightly fuller, slightly fatty”.

Consider `CCCCCCCC(=O)OC[C@H](COP(=O)([O-])OCC[N+](C)(C)C)OC(=O)CCCCCCC` [Dicapryloylphosphatidylcholine], for which the “Results” value in series [1] is given as “Some mouthfeel, similar to reference, slight off-note”.

As to `CCCCCC(=O)OCC(COP(=O)(O)O)OC(=O)CCCCC` (stereo not shown) [Dicaproylphosphatidic acid], in series [1], the “Results” value was “Thin, typical diet cola, slight metallic off-note, and sweet, acidic, more lemon, lingering/long lasting, and oily”.

Consider `CCCCCCCC/C=C\CCCCCCCC(=O)OCC(O)COP(=O)(O)OCC(O)CO` (stereo not shown) [1-Oleoyl-2-hydroxy-glycero-3-phosphoglycerol], for which, in series [1], the “Results” value is “less sour, more sweet, similar to reference”.

`CCCCCCCCCCCC(=O)OC[C@H](COP(=O)([O-])OCC[N+](C)(C)C)OC(=O)CCCCCCCCCCC` [Dilauroylphosphatidyl choline]: in series [1], the “Overall result: deliver the mouthfeel required in the reduced-sugar beverage without further generating undesirable off-notes” value is “Excellent results”.

For `CCCCCC(=O)OC[C@H](COP(=O)(O)OCCN)OC(=O)CCCCC` [Dicaproylphosphatidyl ethanolamine], in series [1], the “Results” value is given as “Quite metallic, slightly more fatty, sweet lingering,; also recorded: thin, less sweet, less flavor, lingering fatty taste;”.

On to `CCCCCCCC/C=C\CCCCCCCC(=O)OC[C@H](COP(=O)(O)OCC(O)CO)OC(=O)CCCCCCC/C=C\CCCCCCCC` (stereo partly shown) [Dioleoylphosphatidyl glycerol], for which, in series [1], the “Results” value is “chemical, slight off-note on taste”.

As for `CCCCCCCCCCCC(=O)OC[C@H](COP(=O)(O)OCCN)OC(=O)CCCCCCCCCCC` [Dilauroylphosphatidyl ethanolamine], the “Results” value in series [1] is “Very similar to reference, slightly fuller, sweeter,; also recorded: citrusy”.

On to `CCCCCCCCCCCCCC(=O)OC[C@H](COP(=O)([O-])OCC[N+](C)(C)C)OC(=O)CCCCCCCCCCCCC` [Dimyristoylphosphatidylcholine], for which, in series [1], the “Overall result: deliver the mouthfeel required in the reduced-sugar beverage without further generating undesirable off-notes” value is “Excellent results”; the “Results” value was “carbonated, sweeter”.

In the case of `CCCCCCCCCCCCCCCC(=O)OC[C@H](COP(=O)(O)O)OC(=O)CCCCCCCCCCCCCCC` [Dipalmitoylphosphatidic acid], in series [1], the “Overall result: deliver the mouthfeel required in the reduced-sugar beverage without further generating undesirable off-notes” value was “Excellent results”; the “Results” value was “smooth, good mouthfeel, slightly oily, no off-note; also recorded: More mouthfeel, fatty, fuller, heavy, sweeter,”.

For the compound `CCCCCCCC/C=C\CCCCCCCC(=O)OC[C@H](COP(=O)(O)O)OC(=O)CCCCCCC/C=C\CCCCCCCC` [Dioleoylphosphatidic acid], the “Results” value in series [1] is “More mouthfeel, fatty, fuller, very drying,; also recorded: mouthcoating, less lingering, oily”.

Turning to `CCCCCCCCCCCC(=O)OC[C@H](COP(=O)(O)O)OC(=O)CCCCCCCCCCC` [Dilauroylphosphatidic acid], in series [1], the “Results” value is “More Mouthfeel, fatty, fuller, clean, acidic, more; also recorded: sour and harsh, oily”.

For the compound `CCCCCCCCCCCC(=O)OCC(COP(=O)(O)OCC(O)CO)OC(=O)CCCCCCCCCCC` (stereo not shown) [Dilauroylphosphatidyl glycerol], in series [1], the “Results” value is on record as “Sweeter, similar to reference, fatty, off-note, waxy,; also recorded: good sweetness, slightly flat aroma”.

For the compound Dicaprylphosphatidylcholine, in series [1], the “Overall result: deliver the mouthfeel required in the reduced-sugar beverage without further generating undesirable off-notes” value is listed as “Excellent results”; the “Results” value is “More mouthfeel, good mouthfeel, more body,; also recorded: creamy, sl. more sweet, good sweetness”.

Take `CCCCCCCCCCCCCCCC(=O)OCC(O)COP(=O)(O)OCC(O)CO` (stereo not shown) [1-Palmitoyl-2-hydroxy-glycero-3-phosphoglycerol]: in series [1], the “Results” value is on record as “slightly more mouthfeel, creamy, similar to reference”.

On to `CCCCCCCC/C=C\CCCCCCCC(=O)OC[C@H](COP(=O)(O)OCCN)OC(=O)CCCCCCC/C=C\CCCCCCCC` [Dioleoylphosphatidyl ethanolamine], for which the “Results” value in series [1] is “Slightly sweeter, slightly more bitter, fatty/waxy off-”. The “Solubility in Diet Cola” value in series [2] was “not completely soluble”.

On to `CCCCCC(=O)OC[C@H](COP(=O)(O)OCC[N+](C)(C)C)OC(=O)CCCCC` [Dicaproylphosphatidyl choline], for which, in series [1], the “Overall result: deliver the mouthfeel required in the reduced-sugar beverage without further generating undesirable off-notes” value is “Excellent results”; the “Results” value is “More acidity than others, sweeter, smoother, fuller,; also recorded: more mouthfeel, similar mouthfeel”.

In the case of `CCCCCCCCCCCCCCCC(=O)OCC(COP(=O)(O)OCCN)OC(=O)CCCCCCCCCCCCCCC` (stereo not shown) [Dipalmitoylphosphatidyl ethanolamine], the “Results” value in series [1] is listed as “less flavor, lingering fatty”. Further, in series [2] (5 mg in 300 mL Diet Cola, shaken 1 min, sonicated 5 min, stored at room temperature overnight), the “Solubility in Diet Cola” value is on record as “completely soluble”.

The values above are taken from patent US20100215822A1, “MOUTHFEEL ENHANCING INGREDIENTS” (Firmenich SA, priority 2007, published 2010).
